Measured values as given in patent publication US9758459B2, “Allosteric modulators of factor XIa as anticoagulant agents” (VIRGINIA COMMONWEALTH UNIVERSITY, priority 2012, dated 2017).
Several values for one entry are separate records, joined by “and”; a condition that tells them apart may be missing. Equal values may be shown once. Read-outs that look alike come from different tables or passages of the source.

Tests used:
Type in all cases: biochemical
human factor XIa = biological target: T1, human factor XIa (Homo sapiens, UniProt P03951); experiment: Direct inhibition of factor XIa, chromogenic substrate S-2366 hydrolysis assay; details: for IC50: read-out: IC50 (converted)
T1 construct: purchased Haematologic Technologies (Essex Junction, Vt.); host or cells: human plasma
Description: Solvent A consisted of 25 mM n-hexylamine in water containing 0.1% (v/v) formic acid, while solvent B consisted of 25 mM n-hexylamine in acetonitrile-water mixture (3:1 v/v) containing 0.1% (v/v) formic acid. […] The sample was first monitored for absorbance in the range of 190-400 nm and then directly introduced into the mass spectrometer. ESI-MS detection was performed in positive ion mode for which the capillary voltage was 4 kV, cone voltage was 20 V, desolvation temperature was 350° C. and nitrogen gas flow was maintained at 650 L/hr. Mass scans were collected in the range of 1000-2048 amu within 0.25 s and several of these added to enhanced signal-to-noise ratio. Direct Inhibition of Factor XIa. […] After 10 min incubation, 5 μL factor XIa substrate (345 μM) was rapidly added and the residual FXIa activity was measured from the initial rate of increase in absorbance at 405 nm. […] Relative residual FXIa activity at each concentration of the inhibitor was calculated from the ratio of FXIa activity in the presence and absence of the inhibitor. Logistic equation 1 was used to fit the dose-dependence of residual protease activity to obtain the potency (IC50) and efficacy (ΔY) of inhibition.
Direct Inhibition of Factor XIa by Sulfated QAOs was performed as described in Example 1.
The ability of the sulfated inositol analogs to inhibit factor XIa was studied using the in vitro assay described in Example 1. In this assay, the factor XIa enzyme is anticipated to hydrolyze a particular peptide linkage in the corresponding peptide substrate releasing p-nitroaniline which absorbs at wavelength of 405 nm giving a line slope corresponds to the enzyme activity. The line slope of no inhibitor status is considered as a reference slope and it depends on the relative concentrations of factor XIa enzyme and its substrate. Factor XIa enzyme concentration was decided to get appropriate reference slope of approximately 25-35, whereas the substrate concentration was set to be larger than its affinity to factor XIa enzyme under equilibrium condition, Km. In presence of potential factor XIa inhibitor, the enzyme capacity to hydrolyze the designated peptide linkage in the substrate gets diminished or completely abolished depending on the inhibitor concentration and efficacy. […] Such decreased slope reflects a drop in the catalytic enzyme activity of factor XIa.

factor Xa = biological target: T2, factor Xa (Homo sapiens, UniProt P00742); experiment: Factor Xa chromogenic substrate hydrolysis assay
T2 construct: purchased Haematologic Technologies (Essex Junction, Vt.); host or cells: human plasma
Description: (§1) Plasma FIX (500 nM) was incubated with human FXIa (3 nM) in 50 mM Hepes buffer, pH 7.4, containing 125 mM NaCl, 5 mM CaCl2, and 0.1 mg/mL bovine serum albumin at 24° C. […] The primary antibody was goat anti-human FIX polyclonal IgG (Enzyme Research Laboratories, South Bend, Tenn.), and the secondary antibody was horseradish peroxidase-conjugated anti-goat IgG. Detection was by chemiluminescence. […] The inhibition profile was determined over a range of inhibitor concentrations to determine the IC50 of the enzyme-inhibitor complex. The KM of the substrate for its enzyme was used to identify the concentration of the substrate to be used for inhibition studies. […] Active site concentrations for preparations of FXIa were determined by titrations with human antithrombin in an S-2366 cleavage assay. The reaction was monitored using a SpectraMax 340 microtiter plate reader (Molecular Devices Corp., Sunnyvale, Calif.) with a reaction volume of 100 μL and path length of 3 mm. Each assay was performed in triplicate. The concentration of S-2366 was measured using an absorption coefficient of 8,266 M-1cm-1 at λ342 nm, while the free p-nitroaniline concentration was calculated using an absorption coefficient of 9,933 M cm^−1 at λ405 nm. The data was fitted using the standard Michaelis-Menten equation to determine the KM and VMAX. Results
(§2) Inhibition of Proteases of the Coagulation and Digestive Systems by 16S. The inhibition potential of 500 μM SAM (16S, 15S, 13S) against coagulation enzymes including thrombin and factor Xa and digestive enzymes including trypsin and chymotrypsin was evaluated using chromogenic substrate hydrolysis assays reported in the literature.^2,3,6 These assays were performed using substrates appropriate for the enzyme being studied under conditions closest to the physiological condition (37° C. and pH 7.4), except for thrombin, which was performed at 25° C. and pH 7.4. The concentrations of enzymes and substrates in microplate wells, respectively, were: 6 nM and 50 μM for thrombin; 1.09 nM and 125 μM for factor Xa, 2.5 ng/ml and 80 μM for bovine trypsin; and 500 ng/ml and 240 μM for bovine chymotrypsin. The ratio of the proteolytic activity of an enzyme in the presence of the sulfated QAO to that in its absence was used to calculate percent inhibition (%).

factor XIIa = biological target: T3, factor XIIa (Homo sapiens, UniProt P00748); experiment: Factor XIIa chromogenic substrate hydrolysis assay
T3 construct: purchased Enzyme Research Laboratories (South Bend, Ind.)
T3 sequence (P00748 373-615 limits assumed): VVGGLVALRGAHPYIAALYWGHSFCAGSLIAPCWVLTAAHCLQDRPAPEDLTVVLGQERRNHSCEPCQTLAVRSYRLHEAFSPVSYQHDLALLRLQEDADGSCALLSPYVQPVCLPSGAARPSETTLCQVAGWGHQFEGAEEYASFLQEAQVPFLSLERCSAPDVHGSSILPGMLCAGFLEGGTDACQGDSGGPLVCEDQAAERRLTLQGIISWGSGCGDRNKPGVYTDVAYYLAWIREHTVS

thrombin = biological target: T4, thrombin (Homo sapiens, UniProt P00734); experiment: Thrombin chromogenic substrate hydrolysis assay
T4 construct: purchased Haematologic Technologies (Essex Junction, Vt.); host or cells: human plasma
Description: as §1, §2

[1] = biological target: T5, FXIa catalytic domain (FXIa-CD) (Homo sapiens, UniProt P03951, C500S); experiment: Michaelis-Menten kinetics of S-2366 hydrolysis by FXIa catalytic domain
T5 construct: eliminating the bond allows the catalytic domain of FXIa (FXIa-CD) to separate from the heavy chain; made in house; host or cells: HEK-293
Description: as §1

human plasma = experiment: Activated partial thromboplastin time (APTT) plasma clotting assay
Description: Plasma clotting assays, prothrombin and activated partial thromboplastin time (PT and APTT, respectively), are routinely used to assess the anticoagulation potential of new enzyme inhibitors in an in vitro setting. Whereas PT measures the effect of an inhibitor on the extrinsic pathway of coagulation, APTT measures the effect on the intrinsic pathway.
Prothrombin Time (PT) and Activated Partial Thromboplastin Time (APTT) were assessed as described in Example 1.

T5 sequence (P03951 388-625 C500S): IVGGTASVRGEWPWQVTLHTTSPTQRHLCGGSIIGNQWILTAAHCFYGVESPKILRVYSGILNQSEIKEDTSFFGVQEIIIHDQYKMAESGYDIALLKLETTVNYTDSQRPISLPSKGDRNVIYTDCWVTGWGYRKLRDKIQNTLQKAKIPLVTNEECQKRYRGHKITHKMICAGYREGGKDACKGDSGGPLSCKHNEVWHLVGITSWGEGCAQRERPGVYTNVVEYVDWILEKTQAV
T2 sequence (P00742 235-488 limits assumed): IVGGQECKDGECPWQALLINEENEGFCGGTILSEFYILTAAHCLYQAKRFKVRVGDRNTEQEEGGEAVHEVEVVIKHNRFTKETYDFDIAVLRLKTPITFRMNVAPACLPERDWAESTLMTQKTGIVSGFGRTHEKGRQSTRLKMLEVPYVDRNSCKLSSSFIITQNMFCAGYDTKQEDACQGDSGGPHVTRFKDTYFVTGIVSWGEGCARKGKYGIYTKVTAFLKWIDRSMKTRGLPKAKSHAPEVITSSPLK
T2 sequence (P00742 41-179 partner limits assumed): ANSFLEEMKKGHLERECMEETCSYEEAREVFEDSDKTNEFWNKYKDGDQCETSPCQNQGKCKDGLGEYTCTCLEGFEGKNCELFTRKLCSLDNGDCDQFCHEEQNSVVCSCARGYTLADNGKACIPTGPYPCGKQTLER
T1 sequence (P03951 19-387 limits assumed): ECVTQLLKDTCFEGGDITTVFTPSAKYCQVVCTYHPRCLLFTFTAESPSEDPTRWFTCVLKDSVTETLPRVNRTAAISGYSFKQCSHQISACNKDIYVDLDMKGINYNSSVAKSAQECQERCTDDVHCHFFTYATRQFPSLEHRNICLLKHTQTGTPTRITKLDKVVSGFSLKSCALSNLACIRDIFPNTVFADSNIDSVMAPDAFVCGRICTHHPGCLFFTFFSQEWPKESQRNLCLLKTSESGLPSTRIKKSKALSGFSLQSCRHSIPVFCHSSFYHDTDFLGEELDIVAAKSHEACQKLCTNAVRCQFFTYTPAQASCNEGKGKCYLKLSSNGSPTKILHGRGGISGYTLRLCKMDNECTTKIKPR
T1 sequence (P03951 388-625 limits assumed): as the sequence (P03951 388-625 C500S) above, with S113C counted along it

- efficacy of FXIa inhibition (human factor XIa; chromogenic substrate): ~100% and 97%
- ΔY (human factor XIa; efficacy of inhibition): 97.1 ± 3.2
- HS (Hill slope) (human factor XIa; pH 7.4, 37° C.): 1.3 and 1.3 ± 0.1
- IC50 (human factor XIa; pH 7.4, 37° C., S-2366): 0.689 µM
- IC50 (human factor XIa; translated with average molecular weight 2178 g/mol): ~0.55 µM and 0.551 µM
- HS (factor Xa): 0.8 ± 0.2
- IC50 (factor Xa): 153 µM
- ΔY (factor Xa): 101.9 ± 3.5
- selectivity over factor Xa (factor Xa; FXIa vs factor Xa): 221 fold
- HS (factor XIIa): 3.0 ± 1.8
- IC50 (factor XIIa): 147 µM
- ΔY (factor XIIa): 55.7 ± 5.9
- selectivity over factor XIIa (factor XIIa; FXIa vs factor XIIa): 200 fold
- HS (thrombin): 0.5 ± 0.1
- IC50 (thrombin): 700 µM
- ΔY (thrombin): 83 ± 10
- selectivity over thrombin (thrombin; FXIa vs thrombin): 1016 fold
- decrease in VMAX ([1]; SPGG 0 to 5.0 μg/mL): ~5 fold
- VMAX ([1]; [SPGG] 0.005 μg/mL): 87.0 ± 2.2 mAU/min
- VMAX ([1]; [SPGG] 0.5 μg/mL): 53.9 ± 1.4 mAU/min
- VMAX ([1]; [SPGG] 5.0 μg/mL): 22.6 mAU/min and 22.6 ± 1.4 mAU/min
Compound: O=C(OC[C@H]1O[C@@H](OC(=O)c2cc(OS(=O)(=O)O)c(O)c(OS(=O)(=O)O)c2)[C@H](OC(=O)c2cc(OS(=O)(=O)O)c(O)c(OS(=O)(=O)O)c2)[C@@H](OC(=O)c2cc(OS(=O)(=O)O)c(O)c(OS(=O)(=O)O)c2)[C@@H]1OC(=O)c1cc(OS(=O)(=O)O)c(O)c(OS(=O)(=O)O)c1)c1cc(OS(=O)(=O)O)c(O)c(OS(=O)(=O)O)c1 [SPGG, Sulfated Pentagalloylglucoside]
- fold less effective than enoxaparin (human plasma; at molar levels): 36 fold
- APTT doubling potency relative to enoxaparin (fold less) (human plasma; by weight (μg/mL)): 18 fold
- concentration for 2-fold increase in APTT (human plasma; human plasma): 96 µg/mL
